Results from patent US6682896B1, “Peptides representing epitopic sites on r-IFN-β, antibodies thereto and uses thereof” (Schering Aktiengesellschaft, priority 1988, dated 2004).

Columns and labels:
Details in all cases: 50 μg peptide per well dried to well; goat anti-mouse/HRP, ABTS
[1] = system: neutralizing mAb A5; test: ELISA binding of mAb A5 to plate-dried synthetic peptides
Protocol: (§1) A series of enzyme-linked immunosorbent assays (ELISA) were run in which a panel of three neutralizing mab's, identified as A1, A5 and A7 (developed by […] Grossberg at the Medical College of Wisconsin) and a single non-neutralizing mAb, identified as B2b (received from Medical College of Wisconsin, […] and S. Grossberg), was assessed for binding to synthetic peptides IB, IC, IE, and a control. In each case, the peptide was dissolved in 0.05M Tris buffer, pH 9.5 and aliquoted in 100 μl volumes to wells of a microtiter plate (Corning) at a concentration of 50 μg peptide per well. The plate was placed in a vacuum dessicator overnight to dry the peptide to the well. Standard ELISA procedures were followed after the overnight coupling, i.e. common blocking steps, washes, incubation conditions and color development of the appropriate goat anti-mouse/horseradish peroxidase conjugate with ABTS substrate. […] The non neutralizing mAb B2b reacted with peptides IB and IC but not with IE.

[2] = system: non-neutralizing mAb B2b; test: ELISA binding of mAb B2b to plate-dried synthetic peptides
Protocol: as §1

[3] = system: neutralizing mAb A7; test: ELISA binding of mAb A7 to plate-dried synthetic peptides
Protocol: as §1

Reaction (binding) of mAb A5 with peptide in ELISA [1]: preferential binding | Reaction (binding) of non-neutralizing mAb B2b with peptide in ELISA [2]: not with IE | Reaction (binding) of mAb A7 with peptide in ELISA [3]: virtually no activity
Substance: H-IPEEIKQL-OH [peptide IE, NH2-Ile-Pro-Glu-Glu-Ile-Lys-Gln-Leu-COOH]
